Measurements from patent US9139609B2, “C-4″ position substituted macrolide derivative” (priority 2011, dated 2015).
Converted amounts (≈) assume the structure as drawn.

Legend:
Format in all cases: cell-based
[1] = tested on: Streptococcus pyogenes M808; assay: In vitro antibacterial activity, microbroth dilution method (CLSI method), test bacterium D (erythromycin resistant); details: read-out: MIC (minimum inhibitory concentration), test bacterium D
Method: (§1) In vitro antibacterial activities of the compounds of the present invention against various test bacteria were measured according to the microbroth dilution method (CLSI method). Among them, the bacteria C, D and E are erythromycin resistant bacteria. The MIC values (minimum inhibitory concentration, μg/ml) for the test bacteria A and B are exemplified in Table 22.

[2] = tested on: Mycoplasma pneumoniae MSC04933; assay: In vitro antibacterial activity, microbroth dilution method (CLSI method), test bacterium E (erythromycin resistant); details: read-out: MIC (minimum inhibitory concentration), test bacterium E
Method: as §1

[3] = tested on: Streptococcus pneumoniae ATCC700904; assay: In vitro antibacterial activity, microbroth dilution method (CLSI method), test bacterium C (erythromycin resistant); details: read-out: MIC (minimum inhibitory concentration), test bacterium C
Method: as §1

[4] = tested on: Haemophilus infuenzae ATCC43095; assay: In vitro antibacterial activity, microbroth dilution method (CLSI method), test bacterium A; details: for MIC: read-out: MIC (minimum inhibitory concentration), test bacterium A
Method: as §1

[5] = tested on: Streptococcus pneumoniae ATCC49619; assay: In vitro antibacterial activity, microbroth dilution method (CLSI method), test bacterium B; details: for MIC: read-out: MIC (minimum inhibitory concentration), test bacterium B
Method: as §1

SMILES	MIC [1] [µg/mL]	MIC [2] [µg/mL]	MIC [3] [µg/mL]	MIC [4] [µg/mL]	MIC [5] [µg/mL]	MIC (minimum inhibitory concentration), test bacterium A [4] [µg/mL]	MIC (minimum inhibitory concentration), test bacterium B [5] [µg/mL]
CC[C@H]1OC(=O)[C@H](C)[C@@H](O[C@H]2C[C@@](C)(OC)[C@@](O)(CN(C)CCN(C)C(C)(C)c3ccccc3OC)[C@H](C)O2)[C@H](C)[C@@H](O[C@@H]2O[C@H](C)C[C@H](N(C)C)[C@H]2O)[C@@](C)(OC)C[C@@H](C)C2=NCCN3C(=O)O[C@@]1(C)[C@H]3[C@H]2C [Example 338]	≤ 2	≤ 0.25	0.12 to 0.25 (≈ 0.115 to 0.239 µM)	–	–	–	–
CC[C@H]1OC(=O)[C@H](C)[C@@H](O[C@H]2C[C@@](C)(OC)[C@@](O)(CN(C)CCN(C)C)[C@H](C)O2)[C@H](C)[C@@H](O[C@@H]2O[C@H](C)C[C@H](N(C)C)[C@H]2O)[C@@](C)(OC)C[C@@H](C)C(=O)[C@H](C)[C@H]2C(SCCCn3cnc4c(N)ncnc43)C(=O)O[C@@]21C (stereo partly drawn) [Example 364]	≤ 2	≤ 0.25	≤ 0.06	–	–	–	–
CC[C@H]1OC(=O)[C@H](C)[C@@H](O[C@H]2C[C@@](C)(OC)[C@@](O)(CN(C)CCN(C)C(C)(C)c3ccccc3OC)[C@H](C)O2)[C@H](C)[C@@H](O[C@@H]2O[C@H](C)C[C@H](N(C)C)[C@H]2O)[C@@](C)(OC)C[C@@H](C)C(=O)[C@H](C)[C@H]2C(C#N)C(=O)O[C@@]21C (stereo partly drawn) [Example 363]	≤ 2	≤ 0.25	0.12 to 0.25 (≈ 0.115 to 0.239 µM)	–	–	–	–
CC[C@H]1OC(=O)[C@H](C)[C@@H](O[C@H]2C[C@@](C)(OC)[C@@](O)(CN(C)CCN(CC)CC)[C@H](C)O2)[C@H](C)[C@@H](O[C@@H]2O[C@H](C)C[C@H](N(C)C)[C@H]2O)[C@@](C)(OC)C[C@@H](C)C(=O)[C@H](C)[C@H]2NC(=O)O[C@@]21C [Example 299]	≥ 16	0.5 to 1 (≈ 0.546 to 1.09 µM)	0.12 to 0.25 (≈ 0.131 to 0.273 µM)	–	–	–	–
CC[C@H]1OC(=O)[C@H](C)[C@@H](O[C@H]2C[C@@](C)(OC)[C@@](O)(CN(C)CCN(C(C)C)C(C)C)[C@H](C)O2)[C@H](C)[C@@H](O[C@@H]2O[C@H](C)C[C@H](N(C)C)[C@H]2O)[C@@](C)(OC)C[C@@H](C)C(=O)[C@H](C)[C@H]2N(CCNS(C)(=O)=O)C(=O)O[C@]12C [Example 404]	≤ 2	≤ 0.25	0.12 to 0.25 (≈ 0.113 to 0.235 µM)	–	–	–	–
CC[C@H]1OC(=O)[C@H](C)[C@@H](O[C@H]2C[C@@](C)(OC)[C@@](O)(CN(C)CCN(C(C)C)C(C)C)[C@H](C)O2)[C@H](C)[C@@H](O[C@@H]2O[C@H](C)C[C@H](N(C)C)[C@H]2O)[C@@](C)(OC)C[C@@H](C)C(=NO)[C@H](C)[C@H]2N(CCNS(C)(=O)=O)C(=O)O[C@]12C [Example 458]	4 to 8 (≈ 3.71 to 7.41 µM)	–	0.12 to 0.25 (≈ 0.111 to 0.232 µM)	4 (≈ 3.71 µM)	0.06 (≈ 0.0556 µM)	–	–
CC[C@H]1OC(=O)[C@H](C)[C@@H](O[C@H]2C[C@@](C)(OC)[C@@](O)(CN(C)C(=O)CN(CC)CC)[C@H](C)O2)[C@H](C)[C@@H](O[C@@H]2O[C@H](C)C[C@H](N(C)C)[C@H]2O)[C@@](C)(OC)C[C@@H](C)C(=O)[C@H](C)[C@H]2NC(=O)O[C@@]21C [Example329]	–	–	–	8 (≈ 8.61 µM)	0.03 (≈ 0.0323 µM)	–	–
CC[C@H]1OC(=O)[C@H](C)[C@@H](O[C@H]2C[C@@](C)(OC)[C@@](O)(CN(C)CCN(C)C(C)(C)c3ccccc3OC)[C@H](C)O2)[C@H](C)[C@@H](O[C@@H]2O[C@H](C)C[C@H](N(C)C)[C@H]2O)[C@@](C)(OC)C[C@@H](C)[C@@H]2NCCN3C(=O)O[C@@]1(C)[C@H]3[C@@H]2C [Example 340]	≤ 2	≤ 0.25	0.12 to 0.25 (≈ 0.114 to 0.238 µM)	–	–	–	–
CC[C@H]1OC(=O)[C@H](C)[C@@H](O[C@H]2C[C@@](C)(OC)[C@@](O)(CN(C)CCN(C)C(C)(C)c3ccccc3OC)[C@H](C)O2)[C@H](C)[C@@H](O[C@@H]2O[C@H](C)C[C@H](N(C)C)[C@H]2O)[C@@]2(C)C[C@@H](C)C3(NCCN4C(=O)O[C@@]1(C)[C@H]4[C@H]3C)O2 [Example 341]	≤ 2	≤ 0.25	0.12 to 0.25 (≈ 0.116 to 0.242 µM)	–	–	–	–
CC[C@H]1OC(=O)[C@H](C)[C@@H](O[C@H]2C[C@@](C)(OC)[C@@](O)(CN(C)CCN(CC)CC)[C@H](C)O2)[C@H](C)[C@@H](O[C@@H]2O[C@H](C)C[C@H](N(C)C)[C@H]2O)[C@@](C)(OC)C[C@@H](C)C(=O)[C@H](C)[C@H]2N(O)C(=O)O[C@]12C [Example170]	–	–	–	4 (≈ 4.3 µM)	0.03 (≈ 0.0322 µM)	–	–
CC[C@H]1OC(=O)[C@H](C)[C@@H](O[C@H]2C[C@@](C)(OC)[C@@](O)(CN(C)CCN(C(C)C)C(C)C)[C@H](C)O2)[C@H](C)[C@@H](O[C@@H]2O[C@H](C)C[C@H](N(C)C)[C@H]2O)[C@@](C)(OC)C[C@@H](C)C(=O)[C@H](C)[C@H]2N(CCOS(N)(=O)=O)C(=O)O[C@]12C [Example456]	–	–	–	2 (≈ 1.88 µM)	0.03 (≈ 0.0281 µM)	–	–
CC[C@H]1OC(=O)[C@H](C)[C@@H](O[C@H]2C[C@@](C)(OC)[C@@](O)(CN(C)CCN(C)C(C)(C)c3ccccc3OC)[C@H](C)O2)[C@H](C)[C@@H](O[C@@H]2O[C@H](C)C[C@H](N(C)C)[C@H]2O)[C@@](C)(OC(N)=O)C[C@@H](C)C(=O)[C@H](C)[C@H]2NC(=O)O[C@@]21C [Example342]	–	–	–	4 (≈ 3.81 µM)	0.06 (≈ 0.0571 µM)	–	–
CC[C@H]1OC(=O)[C@H](C)[C@@H](O[C@H]2C[C@@](C)(OC)[C@@](O)(CN(C)CCN(CC)CC)[C@H](C)O2)[C@H](C)[C@@H](O[C@@H]2O[C@H](C)C[C@H](N(C)C)[C@H]2O)[C@@](C)(OC)C[C@@H](C)C(=O)[C@H](C)[C@H]2NC(=O)O[C@@]21C [Example299]	–	–	–	4 (≈ 4.37 µM)	0.03 (≈ 0.0328 µM)	–	–
CC[C@H]1OC(=O)[C@H](C)[C@@H](O[C@H]2C[C@@](C)(OC)[C@@](O)(CN(C)CCN(C(C)C)C(C)C)[C@H](C)O2)[C@H](C)[C@@H](O[C@@H]2O[C@H](C)C[C@H](N(C)C)[C@H]2O)[C@@](C)(OC)C[C@@H](C)C(=O)[C@H](C)[C@H]2N(CCNS(C)(=O)=O)C(=O)O[C@]12C [Example404]	–	–	–	4 (≈ 3.76 µM)	0.03 (≈ 0.0282 µM)	–	–
CC[C@H]1OC(=O)[C@H](C)[C@@H](O[C@H]2C[C@@](C)(OC)[C@@](O)(CN(C)CCN(CC)C(=O)OC)[C@H](C)O2)[C@H](C)[C@@H](O[C@@H]2O[C@H](C)C[C@H](N(C)C)[C@H]2O)[C@@](C)(OC)C[C@@H](C)C(=O)[C@H](C)[C@H]2NC(=O)O[C@@]21C [Example264]	–	–	–	8 (≈ 8.46 µM)	0.06 (≈ 0.0635 µM)	–	–
CC[C@H]1OC(=O)[C@H](C)[C@@H](O[C@H]2C[C@@](C)(OC)[C@@](O)(CN(C)CCN3C4CCC3CC4)[C@H](C)O2)[C@H](C)[C@@H](O[C@@H]2O[C@H](C)C[C@H](N(C)C)[C@H]2O)[C@@](C)(OC)C[C@@H](C)C(=O)[C@H](C)[C@H]2N(CCNS(C)(=O)=O)C(=O)O[C@]12C [Example446]	–	–	–	4 (≈ 3.77 µM)	0.03 (≈ 0.0283 µM)	–	–
CC[C@H]1OC(=O)[C@H](C)[C@@H](O[C@H]2C[C@@](C)(OC)[C@@](O)(CN(CCOC)CCN(CC)CC)[C@H](C)O2)[C@H](C)[C@@H](O[C@@H]2O[C@H](C)C[C@H](N(C)C)[C@H]2O)[C@@](C)(OC)C[C@@H](C)C(=O)[C@H](C)[C@H]2N(CCNS(C)(=O)=O)C(=O)O[C@]12C [Example443]	–	–	–	4 (≈ 3.7 µM)	0.03 (≈ 0.0278 µM)	–	–
CC[C@H]1OC(=O)[C@H](C)[C@@H](O[C@H]2C[C@@](C)(OC)[C@@](O)(CN(C)CCN(C)C(C)(C)c3ccccc3OC)[C@H](C)O2)[C@H](C)[C@@H](O[C@@H]2O[C@H](C)C[C@H](N(C)C)[C@H]2O)[C@]2(C)C[C@@H](C)C(O2)[C@H](C)[C@H]2NC(=O)O[C@@]21C [Example332]	–	–	–	4 (≈ 4.04 µM)	0.06 (≈ 0.0605 µM)	–	–
CC[C@H]1OC(=O)[C@H](C)[C@@H](O[C@H]2C[C@@](C)(OC)[C@@](O)(CN(C)CCN(C)C(C)(C)c3ccccc3OC)[C@H](C)O2)[C@H](C)[C@@H](O[C@@H]2O[C@H](C)C[C@H](N(C)C)[C@H]2O)[C@@](C)(OC)C[C@@H](C)C2=NCCN3C(=O)O[C@@]1(C)[C@H]3[C@H]2C [Example338]	–	–	–	8 (≈ 7.65 µM)	0.06 (≈ 0.0573 µM)	–	–
CC[C@H]1OC(=O)[C@H](C)[C@@H](O[C@H]2C[C@@](C)(OC)[C@@](O)(CN(C)CCN(C(C)C)C(C)C)[C@H](C)O2)[C@H](C)[C@@H](O[C@@H]2O[C@H](C)C[C@H](N(C)C)[C@H]2O)[C@@](C)(OC)C[C@@H](C)C(=O)[C@H](C)[C@H]2N(CCS(=O)(=O)NC)C(=O)O[C@]12C [Example451]	–	–	–	4 (≈ 3.76 µM)	0.03 (≈ 0.0282 µM)	–	–
CC[C@H]1OC(=O)[C@H](C)[C@@H](O[C@H]2C[C@@](C)(OC)[C@@](O)(CN(C)CCN(C)C(C)(C)c3ccccc3OC)[C@H](C)O2)[C@H](C)[C@@H](O[C@@H]2O[C@H](C)C[C@H](N(C)C)[C@H]2O)[C@@]2(C)C[C@@H](C)C3(NCCN4C(=O)O[C@@]1(C)[C@H]4[C@H]3C)O2 [Example341]	–	–	–	–	–	4 (≈ 3.87 µM)	0.06 (≈ 0.0581 µM)
CC[C@H]1OC(=O)[C@H](C)[C@@H](O[C@H]2C[C@@](C)(OC)[C@@](O)(CN(C)CCN(CC)CC)[C@H](C)O2)[C@H](C)[C@@H](O[C@@H]2O[C@H](C)C[C@H](N(C)C)[C@H]2O)[C@@](C)(OC)C[C@@H](C)C(=NO)[C@H](C)[C@H]2N(CCNS(C)(=O)=O)C(=O)O[C@]12C [Example 334]	4 to 8 (≈ 3.8 to 7.61 µM)	≤ 0.25	0.12 to 0.25 (≈ 0.114 to 0.238 µM)	–	–	–	–
CC[C@H]1OC(=O)[C@H](C)[C@@H](O[C@H]2C[C@@](C)(OC)[C@@](O)(CN(C)CCN(C)C(C)(C)c3ccccc3OC)[C@H](C)O2)[C@H](C)[C@@H](O[C@@H]2O[C@H](C)C[C@H](N(C)C)[C@H]2O)[C@@](C)(OC(N)=O)C[C@@H](C)C(=O)[C@H](C)[C@H]2NC(=O)O[C@@]21C [Example 342]	≤ 2	≤ 0.25	0.12 to 0.25 (≈ 0.114 to 0.238 µM)	–	–	–	–
